Where a name gives a salt, the structure may show the parent alone.
Key:
[1] = molecular target: T1, α4β1 integrin (Jurkat cell adhesion to immobilized CS-1 derived peptide CLHPGEILDVPST) (Homo sapiens, UniProt P05556+P13612); assay: Jurkat-CS-1 assay; type: cell-based; details: Jurkat cells on CS-1 peptide coated plates; read-out: JK/CS-1 (Jurkat CS-1 Assay IC50 value range)
T1 construct: 100 μl of Jurkat cells (2.5×10^6 cells/ml) in DMEM plus BSA; host or cells: Jurkat T-cell line
How it was run: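 CS-1 peptide was SPDP-crosslinked onto HSA-coated plates and blocked with BSA. Jurkat cells (2.5×10^6 cells/ml) in DMEM/BSA were mixed with compound, generally at 100, 20, 5 and 1.25 μM, and allowed to adhere for 1 hr at 37° C. Bound cells were fixed, stained with toluidine blue and quantified by OD590.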

[2] = molecular target: T2, α4β1 integrin (Jurkat T-cell adhesion to IL-1 stimulated endothelial cell monolayers) (Homo sapiens, UniProt P05556+P13612); assay: Jurkat-endothelial cell adhesion assay (Jurkat EC); type: cell-based; details: Jurkat cells on IL-1 stimulated human umbilical vein endothelial cells; read-out: JK/EC (Jurkat EC Assay IC50 value range)
T2 construct: a T-cell line, Jurkat, known to express the α4β1 integrin; host or cells: Jurkat T-cell line
How it was run: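 BCECF-AM-labelled Jurkat cells were mixed with compound, generally 100, 20, 5 and 1.25 μM, and added to HUVEC monolayers (passage ≤6) pre-stimulated 4 hr at 37° C with 0.1 ng/ml IL-1. After 5 min on ice and 20 min at 37° C, washed wells were read by fluorescence as % adhesion relative to no compound.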

T2 sequence (P13612 34-1032): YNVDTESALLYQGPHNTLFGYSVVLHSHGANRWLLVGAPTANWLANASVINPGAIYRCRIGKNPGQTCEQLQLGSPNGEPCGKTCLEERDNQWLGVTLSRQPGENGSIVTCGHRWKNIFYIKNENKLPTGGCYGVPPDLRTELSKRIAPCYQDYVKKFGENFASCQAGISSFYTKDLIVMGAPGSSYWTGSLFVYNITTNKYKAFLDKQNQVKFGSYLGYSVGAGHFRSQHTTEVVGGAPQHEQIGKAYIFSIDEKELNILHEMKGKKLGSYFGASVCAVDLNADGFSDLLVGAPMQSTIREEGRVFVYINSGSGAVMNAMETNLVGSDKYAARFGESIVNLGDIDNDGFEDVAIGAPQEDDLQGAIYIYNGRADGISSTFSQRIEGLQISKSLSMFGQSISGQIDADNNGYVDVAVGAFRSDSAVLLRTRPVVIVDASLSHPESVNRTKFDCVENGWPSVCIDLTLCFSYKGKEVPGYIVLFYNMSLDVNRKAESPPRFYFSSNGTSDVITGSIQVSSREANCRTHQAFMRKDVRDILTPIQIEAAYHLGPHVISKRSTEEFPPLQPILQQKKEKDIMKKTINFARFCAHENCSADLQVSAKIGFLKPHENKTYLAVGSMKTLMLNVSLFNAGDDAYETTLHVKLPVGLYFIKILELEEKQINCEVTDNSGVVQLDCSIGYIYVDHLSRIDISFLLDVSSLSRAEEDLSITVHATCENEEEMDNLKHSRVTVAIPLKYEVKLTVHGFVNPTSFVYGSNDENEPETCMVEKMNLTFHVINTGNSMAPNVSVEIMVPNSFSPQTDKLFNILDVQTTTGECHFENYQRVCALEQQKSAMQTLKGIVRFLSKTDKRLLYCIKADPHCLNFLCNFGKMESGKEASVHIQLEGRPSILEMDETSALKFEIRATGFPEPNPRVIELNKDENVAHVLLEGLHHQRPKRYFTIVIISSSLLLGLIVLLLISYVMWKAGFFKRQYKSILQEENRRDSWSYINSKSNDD
T2 sequence (P05556 21-798): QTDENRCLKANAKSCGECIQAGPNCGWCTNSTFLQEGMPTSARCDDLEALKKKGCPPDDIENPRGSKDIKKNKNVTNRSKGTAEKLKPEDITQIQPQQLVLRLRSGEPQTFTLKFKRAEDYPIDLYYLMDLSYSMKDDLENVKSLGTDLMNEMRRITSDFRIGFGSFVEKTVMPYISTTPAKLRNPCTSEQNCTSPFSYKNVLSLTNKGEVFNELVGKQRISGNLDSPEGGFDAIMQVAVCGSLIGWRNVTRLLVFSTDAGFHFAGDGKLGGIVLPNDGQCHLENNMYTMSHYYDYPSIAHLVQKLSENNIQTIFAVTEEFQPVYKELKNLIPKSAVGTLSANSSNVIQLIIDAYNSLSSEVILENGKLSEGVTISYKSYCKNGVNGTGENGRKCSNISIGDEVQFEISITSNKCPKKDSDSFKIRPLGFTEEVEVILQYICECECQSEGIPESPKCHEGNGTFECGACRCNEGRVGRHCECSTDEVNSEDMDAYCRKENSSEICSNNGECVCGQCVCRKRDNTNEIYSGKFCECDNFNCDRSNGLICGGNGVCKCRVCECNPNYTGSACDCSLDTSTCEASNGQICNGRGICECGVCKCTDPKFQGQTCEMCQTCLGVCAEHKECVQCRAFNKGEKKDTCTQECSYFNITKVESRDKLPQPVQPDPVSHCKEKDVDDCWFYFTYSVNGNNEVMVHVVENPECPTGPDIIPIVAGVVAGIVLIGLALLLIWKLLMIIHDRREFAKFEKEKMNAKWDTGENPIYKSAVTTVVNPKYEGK
T1 sequence (P13612 34-1032): as the sequence (P13612 34-1032) above
T1 sequence (P05556 21-798): as the sequence (P05556 21-798) above

melting point	IC50 [1]	IC50 [2]	Compound
270 °C	–	–	C[C@@H](c1ccccc1)N1[C@H](C(=O)O)C[C@H]1C(=O)N[C@@H](Cc1ccc(NC(=O)c2c(Cl)cccc2Cl)cc1)C(=O)O (as salt: salt) [Example 129, [2S-[1(R*),2α,4β(R*)]]-4-[[[1-Carboxy-2-[4-[(2,6-dichlorobenzoyl)amino]phenyl]ethyl]-amino]carbonyl]-1-(1-phenylethyl)-2-azetidinecarboxylic Acid Dilithium Salt]
118 to 121 °C	≤ 0.05 µM	≤ 0.25 µM	CCOC(=O)N1CSC[C@@H]1C(=O)N[C@@H](Cc1ccc(NC(=O)c2c(Cl)cccc2Cl)cc1)C(=O)O (relative stereo) [Example 12, [S-(R*,R*)]-4-[[[1-Carboxy-2-[4-[(2,6-dichlorobenzoyl)amino]phenyl]ethyl]amino]carbonyl]-3-thiazolidinecarboxylic Acid 3-Ethyl Ester]
138 to 140 °C	≤ 0.05 µM	≤ 0.25 µM	COC(=O)[C@H](Cc1ccc(OCc2c(Cl)cccc2Cl)cc1)NC(=O)[C@H]1CSCN1C(=O)OCCN1CCOCC1 (relative stereo) [Example 36, [S-(R*,R*)]-4-[[[1-[4-[(2,6-Dichlorophenyl)methoxy]phenyl]methyl]-2-methoxy-2-oxoethyl]amino]carbonyl]-3-thiazolidinecarboxylic Acid 3-[2-(4-Morpholinyl)ethyl]ester]
123 to 125 °C	≥ 0.75 µM	≥ 1 µM	COC(=O)[C@H](Cc1ccc(OCc2c(Cl)cccc2Cl)cc1)NC(=O)[C@H]1CSCN1C(=O)OCc1ccccn1 (relative stereo) [Example 38, [S-(R*,R*)]-4-[[[1-[4-[(2,6-Dichlorophenyl)methoxy]phenyl]methyl]-2-methoxy-2-oxoethyl]amino]carbonyl]-3-thiazolidinecarboxylic Acid 3-[(2-Pyridinyl)methyl]ester]
130 to 132 °C	0.05 to 0.75 µM	≤ 0.25 µM	COC(=O)[C@H](Cc1ccc(OCc2c(Cl)cccc2Cl)cc1)NC(=O)[C@H]1CSCN1C(=O)OCCN1CCCC1 (relative stereo) [Example 39, [S-(R*,R*)]-4-[[[1-[4-[(2,6-Dichlorophenyl)methoxy]phenyl]methyl]-2-methoxy-2-oxoethyl]amino]carbonyl]-3-thiazolidinecarboxylic Acid 3-[2-(1-Pyrrolidinyl)ethyl]ester]
80 °C	≥ 0.75 µM	≥ 1 µM	CN(CCc1ccccn1)C(=O)N1CSC[C@@H]1C(=O)N[C@@H](Cc1ccc(OCc2c(Cl)cccc2Cl)cc1)C(=O)O (relative stereo) [Example 153, [S-(R*,R*)]-4-[[[1-Carboxy-2-[4-[(2,6-dichlorophenyl)methoxy]phenyl]ethyl]amino]-carbonyl]-N-methyl-N-[2-(2-pyridinyl)ethyl]-3-thiazolidinecarboxamide]
125 to 126.5 °C	0.05 to 0.75 µM	≥ 1 µM	COC(=O)[C@H](Cc1ccc(OCc2c(Cl)cccc2Cl)cc1)NC(=O)[C@H]1CSCN1C(=O)OC1CCOC1 (relative stereo) [Example 156, [S-(R*,R*)]-4-[[[1-[[4-[(2,6-Dichlorophenyl)methoxy]phenyl]methyl]-2-methoxy-2-oxoethyl]amino]carbonyl]-3-thiazolidinecarboxylic Acid 3-(3-Tetrahydrofuranyl)ester]
80 to 90 °C (dec.)	0.05 to 0.75 µM	≥ 1 µM	COC(=O)[C@H](Cc1ccc(NC(=O)c2c(Cl)cccc2Cl)cc1)NC(=O)[C@H]1CSCN1C(=O)N(C)CCc1ccccn1 [Example 54, 4-[(2,6-Dichlorobenzoyl)amino]-N-[[(4S)-3-[[methyl[2-(2-pyridinyl)ethyl]amino]carbonyl]-4-thiazoidinyl]carbonyl]-L-phenylalanine Methyl Ester]
223 to 225 °C	0.05 to 0.75 µM	≥ 1 µM	COC(=O)[C@H](Cc1ccc(NC(=O)c2c(Cl)cccc2Cl)cc1)NC(=O)[C@H]1CSCN1C(=O)N1CCOCC1 [Example 56, 4-[(2,6-Dichlorobenzoyl)amino]-N-[[(4S)-3-(4-morpholinylcarbonyl)-4-thiazolidinyl]carbonyl]-L-phenylalanine Methyl Ester]
105 to 107 °C	≥ 0.75 µM	≥ 1 µM	COC(=O)[C@H](Cc1ccc(NC(=O)c2c(Cl)cccc2Cl)cc1)NC(=O)[C@H]1CSCN1C(=O)N(CCO)CCO [Example 57, N-[[(4S)-3-[[bis(2-Hydroxyethyl)amino]carbonyl]-4-thiazolidinyl]carbonyl]-4-[(2,6-dichlorobenzoyl)amino]-L-phenylalanine Methyl Ester]
97 to 99 °C	≥ 0.75 µM	≥ 1 µM	CCOC(=O)N1[C@@H](C(=O)N[C@@H](Cc2ccc(NC(=O)c3c(Cl)cccc3Cl)cc2)C(=O)OC)C[C@@H]1C(=O)OC [Example 140, [2R-(2α,4β(S*)]-4-[[[1-[[4-[(2,6-Dichlorobenzoyl)amino]phenyl]methyl]-2-methoxy-2-oxoethyl]amino]carbonyl]-1,2-azetidinedicarboxylic Acid 1-Ethyl-2-methyl Diester]
106 to 108 °C	≥ 0.75 µM	≥ 1 µM	COC(=O)[C@H](Cc1ccc(NC(=O)c2c(Cl)cccc2Cl)cc1)NC(=O)[C@@H]1CCN1C(=O)OC(C)(C)C [Example 142, [2S-(R*,R*)]-2-[[[1-[4-[(2,6-Dichlorobenzoyl)amino]phenylmethyl]-2-methoxy-2-oxoethyl]amino]carbonyl]-1-azetidinecarboxylic Acid 1-(1,1-Dimethyl)ethyl Ester]
113 to 115 °C	≥ 0.75 µM	≥ 1 µM	COC(=O)[C@H](Cc1ccc(NC(=O)c2c(Cl)cccc2Cl)cc1)NC(=O)[C@@H]1CCN1 [Example 158, [2S-(R*,R*)]-2-[[[1-[[4-[(2,6-Dichlorobenzoyl)amino]phenyl]methyl]-2-methoxy-2-oxoethyl]amino]carbonyl]azetidine]
228 to 230 °C	≥ 0.75 µM	≥ 1 µM	CS(=O)(=O)N1CSC[C@@H]1C(=O)N[C@@H](Cc1ccc(OCc2c(Cl)cccc2Cl)cc1)C(N)=O [Example 159]
–	0.05 to 0.75 µM	≥ 1 µM	O=C(O)CCC(=O)N1CCSCCC1C(=O)N[C@@H](Cc1ccc(NC(=O)c2c(Cl)cccc2Cl)cc1)C(=O)O (stereo partly drawn) [Example 267, 5-[[[(1S)-1-Carboxy-2-[4-[(2,6-dichlorobenzoyl)amino]phenyl]ethyl]amino]carbonyl]-tetrahydro-γ-oxo-1,4-thiazepine-4(5H)-butanoic Acid]

Compound	melting point	IC50 [1]	IC50 [2]
[2R-[1(R*),2α,4β(S*)]]-4-[[[1-Carboxy-2-[4-[(2,6-dichlorobenzoyl)amino]phenyl]-ethyl]-amino]carbonyl]-1-(1-phenylethyl)-2-azetidinecarboxylic Acid Dilithium Salt [Example 135]	–	0.05 to 0.75 µM	0.25 to 1 µM
[S]-3-[[[1-[[4-[(2,6-Dichlorobenzoyl)amino]phenyl]methyl]-2-methoxy-2-oxoethyl]amino]-carbonyl]-1-azetidinecarboxylic Acid 1-(1,1-Dimethyl)ethyl Ester [Example 145]	–	≥ 0.75 µM	≥ 1 µM

— patent publication US6685617B1, “Inhibitors of α4β1 mediated cell adhesion” (Pharmacia & Upjohn Company, priority 1998, dated 2004)
